Laboratory results as given in patent publication US20250098679A1, “HERBICIDAL PYRIDONE DERIVATIVES” (SYNGENTA CROP PROTECTION AG, priority 2021, published 2025).

Tests used:
Assay type in all cases: in vivo
Conditions in all cases: evaluated after 13 days
[1] = test system: Echinochloa crus-galli (ECHCG); assay: Pre-emergence Test, Echinochloa crus-galli (ECHCG)
[2] = test system: Amaranthus palmeri (AMAPA); assay: Post-emergence Test, Amaranthus palmeri (AMAPA); set-up: key: 5=81-100%, 4=61-80%, 3=41-60%, 2=21-40%, 1=0-20% damage
How it was run: (§1)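 Sown pots in a glasshouse (24/16 °C day/night, 14 h light, 65% humidity) were sprayed with compound in acetone/water (50:50) with 0.5% Tween 20, at 1000 g/ha unless otherwise stated. Damage was assessed 13 days after spraying and scored 1–5 (5=81-100%, 1=0-20%).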

[3] = test system: Ipomoea hederacea (IPOHE); assay: Post-emergence Test, Ipomoea hederacea (IPOHE); set-up: key to percentage damage caused to the plant, IPOHE (five-point scale): 5=81-100%, 4=61-80%, 3=41-60%, 2=21-40%, 1=0-20% damage
How it was run: as §1

[4] = test system: Amaranthus retoflexus (AMARE); assay: Post-emergence Test, Amaranthus retoflexus (AMARE); set-up: key to percentage damage caused to the plant, AMARE (five-point scale): 5=81-100%, 4=61-80%, 3=41-60%, 2=21-40%, 1=0-20% damage
How it was run: as §1

[5] = test system: Amaranthus retoflexus (AMARE); assay: Pre-emergence Test, Amaranthus retoflexus (AMARE)
[6] = test system: Echinochloa crus-galli (ECHCG); assay: Post-emergence Test, Echinochloa crus-galli (ECHCG); set-up: key to percentage damage caused to the plant, ECHCG (five-point scale): 5=81-100%, 4=61-80%, 3=41-60%, 2=21-40%, 1=0-20% damage
How it was run: as §1

[7] = test system: Setaria faberi (SETFA); assay: Post-emergence Test, Setaria faberi (SETFA); set-up: key to percentage damage caused to the plant, SETFA (five-point scale): 5=81-100%, 4=61-80%, 3=41-60%, 2=21-40%, 1=0-20% damage
How it was run: as §1

[8] = test system: Setaria faberi (SETFA); assay: Pre-emergence Test, Setaria faberi (SETFA)
[9] = test system: Zea mays (ZEAMX); assay: Pre-emergence Test, Zea mays (ZEAMX)
[10] = test system: Zea mays (ZEAMX); assay: Post-emergence Test, Zea mays (ZEAMX); set-up: key to percentage damage caused to the plant, ZEAMX (five-point scale): 5=81-100%, 4=61-80%, 3=41-60%, 2=21-40%, 1=0-20% damage
How it was run: as §1

[11] = test system: Ipomoea hederacea (IPOHE); assay: Pre-emergence Test, Ipomoea hederacea (IPOHE)
[12] = test system: Amaranthus palmeri (AMAPA); assay: Pre-emergence Test, Amaranthus palmeri (AMAPA)

SMILES: CCn1c(Cn2ncc3cc(Cl)ccc32)cc(=O)c(C(=O)O)c1-c1ccc(Cl)c(Cl)c1 [Compound 98, 6-[(5-chloroindazol-1-yl)methyl]-2-(3,4-dichlorophenyl)-1-ethyl-4-oxo-pyridine-3-carboxylic acid]
- Pre-emergence Test ECHCG, percentage damage caused to the plant (five-point scale) ([1]; 250 g/Ha (*)): 0
- percentage damage caused to the plant, AMAPA (five-point scale) ([2]; 250 g/Ha): 0
- percentage damage caused to the plant, IPOHE (five-point scale) ([3]; 250 g/Ha): 1 (1=0-20%)
- percentage damage caused to the plant, AMARE (five-point scale) ([4]; 250 g/Ha): 1 (1=0-20%)
- Pre-emergence Test AMARE, percentage damage caused to the plant (five-point scale) ([5]; 250 g/Ha (*)): 0
- percentage damage caused to the plant, ECHCG (five-point scale) ([6]; 250 g/Ha): 2 (2=21-40%)
- percentage damage caused to the plant, SETFA (five-point scale) ([7]; 250 g/Ha): 1 (1=0-20%)
- Pre-emergence Test SETFA, percentage damage caused to the plant (five-point scale) ([8]; 250 g/Ha (*)): 0
- Pre-emergence Test ZEAMX, percentage damage caused to the plant (five-point scale) ([9]; 250 g/Ha (*)): 0
- percentage damage caused to the plant, ZEAMX (five-point scale) ([10]; 250 g/Ha): 1 (1=0-20%)
- Pre-emergence Test IPOHE, percentage damage caused to the plant (five-point scale) ([11]; 250 g/Ha (*)): 0
- Pre-emergence Test AMAPA, percentage damage caused to the plant (five-point scale) ([12]; 250 g/Ha (*)): 1 (1=0-20%)

SMILES: CCn1c(Cn2cc(C(C)=O)c(C)n2)cc(=O)c(C(=O)O)c1-c1ccc(Cl)c(Cl)c1 [Compound 100, 6-[(4-acetyl-3-methyl-pyrazol-1-yl)methyl]-2-(3,4-dichlorophenyl)-1-ethyl-4-oxo-pyridine-3-carboxylic acid]
- Pre-emergence Test ECHCG, percentage damage caused to the plant (five-point scale) ([1]; 1000 g/ha): 0
- percentage damage caused to the plant, AMAPA (five-point scale) ([2]; 250 g/Ha): 0
- percentage damage caused to the plant, AMAPA (five-point scale) ([2]; 1000 g/ha): 2 (2=21-40%)
- percentage damage caused to the plant, IPOHE (five-point scale) ([3]; 250 g/Ha): 0
- percentage damage caused to the plant, IPOHE (five-point scale) ([3]; 1000 g/ha): 3 (3=41-60%)
- percentage damage caused to the plant, AMARE (five-point scale) ([4]; 250 g/Ha): 0
- percentage damage caused to the plant, AMARE (five-point scale) ([4]; 1000 g/ha): 2 (2=21-40%)
- Pre-emergence Test AMARE, percentage damage caused to the plant (five-point scale) ([5]; 1000 g/ha): 2 (2=21-40%)
- percentage damage caused to the plant, ECHCG (five-point scale) ([6]; 250 g/Ha): 3 (3=41-60%)
- percentage damage caused to the plant, ECHCG (five-point scale) ([6]; 1000 g/ha): 2 (2=21-40%)
- percentage damage caused to the plant, SETFA (five-point scale) ([7]; 250 g/Ha): 0
- percentage damage caused to the plant, SETFA (five-point scale) ([7]; 1000 g/ha): 2 (2=21-40%)
- Pre-emergence Test SETFA, percentage damage caused to the plant (five-point scale) ([8]; 1000 g/ha): 1 (1=0-20%)
- Pre-emergence Test ZEAMX, percentage damage caused to the plant (five-point scale) ([9]; 1000 g/ha): 0
- percentage damage caused to the plant, ZEAMX (five-point scale) ([10]; 250 g/Ha): 0
- percentage damage caused to the plant, ZEAMX (five-point scale) ([10]; 1000 g/ha): 1 (1=0-20%)
- Pre-emergence Test IPOHE, percentage damage caused to the plant (five-point scale) ([11]; 1000 g/ha): 2 (2=21-40%)
- Pre-emergence Test AMAPA, percentage damage caused to the plant (five-point scale) ([12]; 1000 g/ha): 2 (2=21-40%)

SMILES: CCn1c(Cn2cc3c(n2)CCCC3)cc(=O)c(C(=O)O)c1-c1ccc(Cl)c(Cl)c1 [Compound 101, 2-(3,4-dichlorophenyl)-1-ethyl-4-oxo-6-(4,5,6,7-tetrahydroindazol-2-ylmethyl)pyridine-3-carboxylic acid]
- Pre-emergence Test ECHCG, percentage damage caused to the plant (five-point scale) ([1]; 1000 g/ha): 0
- percentage damage caused to the plant, AMAPA (five-point scale) ([2]; 250 g/Ha): 0
- percentage damage caused to the plant, AMAPA (five-point scale) ([2]; 1000 g/ha): 0
- percentage damage caused to the plant, IPOHE (five-point scale) ([3]; 250 g/Ha): 0
- percentage damage caused to the plant, IPOHE (five-point scale) ([3]; 1000 g/ha): 3 (3=41-60%)
- percentage damage caused to the plant, AMARE (five-point scale) ([4]; 250 g/Ha): 0
- percentage damage caused to the plant, AMARE (five-point scale) ([4]; 1000 g/ha): 0
- Pre-emergence Test AMARE, percentage damage caused to the plant (five-point scale) ([5]; 1000 g/ha): 1 (1=0-20%)
- percentage damage caused to the plant, ECHCG (five-point scale) ([6]; 250 g/Ha): 1 (1=0-20%)
- percentage damage caused to the plant, ECHCG (five-point scale) ([6]; 1000 g/ha): 0
- percentage damage caused to the plant, SETFA (five-point scale) ([7]; 250 g/Ha): 0
- percentage damage caused to the plant, SETFA (five-point scale) ([7]; 1000 g/ha): 0
- Pre-emergence Test SETFA, percentage damage caused to the plant (five-point scale) ([8]; 1000 g/ha): 1 (1=0-20%)
- Pre-emergence Test ZEAMX, percentage damage caused to the plant (five-point scale) ([9]; 1000 g/ha): 1 (1=0-20%)
- percentage damage caused to the plant, ZEAMX (five-point scale) ([10]; 250 g/Ha): 0
- percentage damage caused to the plant, ZEAMX (five-point scale) ([10]; 1000 g/ha): 0
- Pre-emergence Test IPOHE, percentage damage caused to the plant (five-point scale) ([11]; 1000 g/ha): 2 (2=21-40%)
- Pre-emergence Test AMAPA, percentage damage caused to the plant (five-point scale) ([12]; 1000 g/ha): 2 (2=21-40%)

SMILES: CCn1c(Cn2ncc3cc(F)ccc32)cc(=O)c(C(=O)O)c1-c1ccc(Cl)c(Cl)c1 [Compound 102, 2-(3,4-dichlorophenyl)-1-ethyl-6-[(5-fluoroindazol-1-yl)methyl]-4-oxo-pyridine-3-carboxylic acid]
- Pre-emergence Test ECHCG, percentage damage caused to the plant (five-point scale) ([1]; 1000 g/ha): 1 (1=0-20%)
- percentage damage caused to the plant, AMAPA (five-point scale) ([2]; 250 g/Ha): 2 (2=21-40%)
- percentage damage caused to the plant, AMAPA (five-point scale) ([2]; 1000 g/ha): 4 (4=61-80%)
- percentage damage caused to the plant, IPOHE (five-point scale) ([3]; 250 g/Ha): 1 (1=0-20%)
- percentage damage caused to the plant, IPOHE (five-point scale) ([3]; 1000 g/ha): 3 (3=41-60%)
- percentage damage caused to the plant, AMARE (five-point scale) ([4]; 250 g/Ha): 1 (1=0-20%)
- percentage damage caused to the plant, AMARE (five-point scale) ([4]; 1000 g/ha): 4 (4=61-80%)
- Pre-emergence Test AMARE, percentage damage caused to the plant (five-point scale) ([5]; 1000 g/ha): 1 (1=0-20%)
- percentage damage caused to the plant, ECHCG (five-point scale) ([6]; 250 g/Ha): 3 (3=41-60%)
- percentage damage caused to the plant, ECHCG (five-point scale) ([6]; 1000 g/ha): 3 (3=41-60%)
- percentage damage caused to the plant, SETFA (five-point scale) ([7]; 250 g/Ha): 1 (1=0-20%)
- percentage damage caused to the plant, SETFA (five-point scale) ([7]; 1000 g/ha): 2 (2=21-40%)
- Pre-emergence Test SETFA, percentage damage caused to the plant (five-point scale) ([8]; 1000 g/ha): 1 (1=0-20%)
- Pre-emergence Test ZEAMX, percentage damage caused to the plant (five-point scale) ([9]; 1000 g/ha): 0
- percentage damage caused to the plant, ZEAMX (five-point scale) ([10]; 250 g/Ha): 1 (1=0-20%)
- percentage damage caused to the plant, ZEAMX (five-point scale) ([10]; 1000 g/ha): 0
- Pre-emergence Test IPOHE, percentage damage caused to the plant (five-point scale) ([11]; 1000 g/ha): 3 (3=41-60%)
- Pre-emergence Test AMAPA, percentage damage caused to the plant (five-point scale) ([12]; 1000 g/ha): 1 (1=0-20%)

SMILES: CCn1c(Cn2cc(C(F)(F)F)nc2C)cc(=O)c(C(=O)O)c1-c1ccc(Cl)c(Cl)c1 [Compound 103, 2-(3,4-dichlorophenyl)-1-ethyl-6-[[2-methyl-4-(trifluoromethyl)imidazol-1-yl]methyl]-4-oxo-pyridine-3-carboxylic acid]
- Pre-emergence Test ECHCG, percentage damage caused to the plant (five-point scale) ([1]; 1000 g/ha): 1 (1=0-20%)
- percentage damage caused to the plant, AMAPA (five-point scale) ([2]; 1000 g/ha): 1 (1=0-20%)
- percentage damage caused to the plant, IPOHE (five-point scale) ([3]; 1000 g/ha): 0
- percentage damage caused to the plant, AMARE (five-point scale) ([4]; 1000 g/ha): 1 (1=0-20%)
- Pre-emergence Test AMARE, percentage damage caused to the plant (five-point scale) ([5]; 1000 g/ha): 1 (1=0-20%)
- percentage damage caused to the plant, ECHCG (five-point scale) ([6]; 1000 g/ha): 1 (1=0-20%)
- percentage damage caused to the plant, SETFA (five-point scale) ([7]; 1000 g/ha): 1 (1=0-20%)
- Pre-emergence Test SETFA, percentage damage caused to the plant (five-point scale) ([8]; 1000 g/ha): 1 (1=0-20%)
- Pre-emergence Test ZEAMX, percentage damage caused to the plant (five-point scale) ([9]; 1000 g/ha): 0
- percentage damage caused to the plant, ZEAMX (five-point scale) ([10]; 1000 g/ha): 1 (1=0-20%)
- Pre-emergence Test IPOHE, percentage damage caused to the plant (five-point scale) ([11]; 1000 g/ha): 0
- Pre-emergence Test AMAPA, percentage damage caused to the plant (five-point scale) ([12]; 1000 g/ha): 2 (2=21-40%)
